Assays:
[1] = system: human breast cancer cells; assay: purified B-2 compound on human breast cancer cells grown in tissue culture; format: cell-based
Source text: (§1) Test were made of the purified B-2 compound on human breast cancer cells grown in tissue culture.

human liver cancer cells = assay: purified B-2 compound on human liver cancer cells in tissue culture; format: cell-based; settings: visually evident
Source text: as §1
The experiment was repeated using human liver cancer cells.

Oc1cc(O)c2c(c1)O[C@H](c1ccc(O)c(O)c1)[C@H](O)[C@H]2c1c(O)cc(O)c2c1O[C@H](c1ccc(O)c(O)c1)[C@H](O)C2 [purified B-2 compound, procyanidin B-2]
number of cells in treated samples [1]: marked reduction
number of cancer cells (human liver cancer cells): substantially reduced

From patent US7329422B2, “Pharmaceutical compositions” (priority 2002, dated 2008)
